Biological target: T1, Mineralocorticoid receptor (Homo sapiens, UniProt P08235)
T1 sequence (P08235 whole entry): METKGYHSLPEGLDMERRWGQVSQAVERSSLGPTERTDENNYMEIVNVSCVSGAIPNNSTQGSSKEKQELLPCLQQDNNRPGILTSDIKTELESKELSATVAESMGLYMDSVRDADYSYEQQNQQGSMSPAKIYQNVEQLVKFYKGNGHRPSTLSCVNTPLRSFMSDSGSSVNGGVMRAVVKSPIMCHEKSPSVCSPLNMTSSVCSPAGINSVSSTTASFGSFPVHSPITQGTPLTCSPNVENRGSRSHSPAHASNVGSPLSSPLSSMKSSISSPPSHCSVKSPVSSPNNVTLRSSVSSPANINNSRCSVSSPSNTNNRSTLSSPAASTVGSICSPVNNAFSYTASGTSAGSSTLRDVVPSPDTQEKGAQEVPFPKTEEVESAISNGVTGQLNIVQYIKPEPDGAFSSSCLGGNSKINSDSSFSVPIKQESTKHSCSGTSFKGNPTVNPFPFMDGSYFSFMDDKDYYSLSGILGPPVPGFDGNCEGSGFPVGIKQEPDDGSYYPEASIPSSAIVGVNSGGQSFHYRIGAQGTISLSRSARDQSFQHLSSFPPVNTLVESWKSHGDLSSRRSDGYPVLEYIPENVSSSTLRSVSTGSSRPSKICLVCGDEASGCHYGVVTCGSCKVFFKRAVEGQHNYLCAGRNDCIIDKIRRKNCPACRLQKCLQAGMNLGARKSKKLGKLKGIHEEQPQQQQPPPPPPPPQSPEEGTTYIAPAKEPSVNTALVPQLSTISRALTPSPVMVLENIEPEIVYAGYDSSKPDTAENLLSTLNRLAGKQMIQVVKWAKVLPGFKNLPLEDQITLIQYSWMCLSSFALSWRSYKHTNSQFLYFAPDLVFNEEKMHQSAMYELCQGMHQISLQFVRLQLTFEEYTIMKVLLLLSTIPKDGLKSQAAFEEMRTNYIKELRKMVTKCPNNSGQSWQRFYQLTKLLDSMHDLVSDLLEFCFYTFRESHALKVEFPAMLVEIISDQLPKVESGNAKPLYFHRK
Test: Fluorescence Polarization Competitive Binding Assay.
Source text: IC50 values shown are means of a single experiment done in duplicate 11-point concentration-effect curves.

## C=CCOC(C)C1=CC(C)(C)Nc2ccc(-c3ccccc3OC)cc21 (stereo unspecified) [6-(2-methoxyphenyl)-2,2-dimethyl-4-[1-(prop-2-en-1-yloxy)ethyl]-1,2-dihydroquinoline]
  IC50: 970 nM
